The source made the active and inactive calls.
How the values were obtained:
Cytochrome P450 2D6 = Cytochrome P450 2D6 (Homo sapiens, UniProt P10635);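 also: CYP2D6 member of a cytochrome P450 panel assay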
Cytochrome P450 3A4 = Cytochrome P450 3A4 (Homo sapiens, UniProt P08684);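 also: CYP3A4 tested as one member of a cytochrome P450 panel screen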
Cytochrome P450 2C19 = Cytochrome P450 2C19 (Homo sapiens, UniProt P33261); test: Cytochrome panel assay with activity outcomes. Panel member name: p450-cyp2c19 Compounds with AC50 equal or less than 10 uM are considered active; assay type: functional; details: read-out: AC50
Cytochrome P450 2C19, sequence (P33261 whole entry): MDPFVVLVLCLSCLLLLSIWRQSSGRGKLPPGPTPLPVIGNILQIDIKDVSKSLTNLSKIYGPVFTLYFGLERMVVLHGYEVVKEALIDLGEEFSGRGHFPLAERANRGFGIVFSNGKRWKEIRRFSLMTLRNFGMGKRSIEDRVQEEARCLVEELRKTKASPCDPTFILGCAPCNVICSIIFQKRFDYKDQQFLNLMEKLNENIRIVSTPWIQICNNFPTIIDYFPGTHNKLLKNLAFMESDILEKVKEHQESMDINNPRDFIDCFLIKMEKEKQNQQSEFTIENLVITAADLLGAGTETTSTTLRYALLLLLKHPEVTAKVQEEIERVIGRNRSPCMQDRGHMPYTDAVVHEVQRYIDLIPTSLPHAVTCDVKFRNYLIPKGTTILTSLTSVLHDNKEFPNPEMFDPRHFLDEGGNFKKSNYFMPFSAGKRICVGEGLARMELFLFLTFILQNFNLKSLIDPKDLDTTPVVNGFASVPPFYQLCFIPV

[1] = target: T1, Replicative DNA helicase DnaB (Mycobacterium tuberculosis, UniProt P9WMR3); test: DnaB intein splicing inhibitors, dose response, biochemical, cell-free fluorescence (AID 449749); assay type: functional
T1 sequence (P9WMR3 whole entry): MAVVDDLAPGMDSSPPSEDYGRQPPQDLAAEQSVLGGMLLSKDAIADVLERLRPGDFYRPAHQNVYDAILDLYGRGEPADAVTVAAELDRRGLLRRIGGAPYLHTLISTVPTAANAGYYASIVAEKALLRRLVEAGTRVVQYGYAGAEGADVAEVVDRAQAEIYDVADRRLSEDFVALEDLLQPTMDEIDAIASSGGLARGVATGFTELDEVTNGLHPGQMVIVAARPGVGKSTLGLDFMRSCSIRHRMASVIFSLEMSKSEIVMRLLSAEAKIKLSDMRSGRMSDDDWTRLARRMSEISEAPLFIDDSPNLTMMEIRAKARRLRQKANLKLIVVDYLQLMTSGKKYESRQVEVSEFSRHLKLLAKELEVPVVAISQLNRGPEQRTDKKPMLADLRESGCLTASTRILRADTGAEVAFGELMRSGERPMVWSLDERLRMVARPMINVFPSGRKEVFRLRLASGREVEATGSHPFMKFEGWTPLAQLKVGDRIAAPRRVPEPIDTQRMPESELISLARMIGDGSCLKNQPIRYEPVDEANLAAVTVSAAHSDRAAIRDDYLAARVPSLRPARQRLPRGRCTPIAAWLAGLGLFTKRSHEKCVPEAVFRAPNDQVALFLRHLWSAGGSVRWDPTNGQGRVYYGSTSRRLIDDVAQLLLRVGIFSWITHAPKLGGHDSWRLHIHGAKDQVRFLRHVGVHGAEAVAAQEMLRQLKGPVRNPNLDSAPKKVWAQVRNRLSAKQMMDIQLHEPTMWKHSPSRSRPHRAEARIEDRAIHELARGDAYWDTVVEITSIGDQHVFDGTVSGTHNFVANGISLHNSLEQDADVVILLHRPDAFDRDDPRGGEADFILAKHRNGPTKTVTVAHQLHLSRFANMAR

Protein RecA = target: T2, Protein RecA (Mycobacterium tuberculosis, UniProt P9WHJ3); test: Fluorescence Cell-Free Homogeneous Dose Retest to Identify Inhibitors of RecA-Intein Splicing Activity. [Related pubchem assays (depositor defined):AID2097, AID2223, AID489010, AID492950]; assay type: functional
T2 sequence (P9WHJ3 whole entry): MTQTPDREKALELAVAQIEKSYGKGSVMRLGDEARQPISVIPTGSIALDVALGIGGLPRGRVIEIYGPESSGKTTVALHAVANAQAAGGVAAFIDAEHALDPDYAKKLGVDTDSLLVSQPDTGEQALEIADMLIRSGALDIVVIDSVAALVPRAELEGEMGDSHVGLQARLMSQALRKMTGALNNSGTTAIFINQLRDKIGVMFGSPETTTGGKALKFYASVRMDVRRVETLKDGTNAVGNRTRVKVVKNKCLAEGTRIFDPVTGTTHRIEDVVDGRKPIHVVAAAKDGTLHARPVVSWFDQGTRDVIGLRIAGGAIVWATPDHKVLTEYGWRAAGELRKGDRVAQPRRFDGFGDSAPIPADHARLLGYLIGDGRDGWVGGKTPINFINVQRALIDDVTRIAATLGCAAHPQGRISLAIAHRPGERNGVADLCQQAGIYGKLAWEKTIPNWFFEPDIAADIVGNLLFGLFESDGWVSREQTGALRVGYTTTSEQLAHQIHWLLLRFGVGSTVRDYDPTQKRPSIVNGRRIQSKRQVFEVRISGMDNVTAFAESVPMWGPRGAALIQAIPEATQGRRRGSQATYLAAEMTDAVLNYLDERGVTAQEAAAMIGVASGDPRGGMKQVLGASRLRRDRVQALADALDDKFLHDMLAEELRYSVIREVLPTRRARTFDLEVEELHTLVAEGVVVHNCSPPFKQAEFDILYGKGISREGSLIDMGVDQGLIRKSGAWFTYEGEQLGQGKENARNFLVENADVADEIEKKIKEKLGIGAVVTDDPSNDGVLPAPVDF

INS1 = test: INS-1E survival protection against cytokine death – cell-based, luminescence, retest, dose response (AID 449756); assay type: functional; details: Rattus norvegicus;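 also: cell death triggered by IL-1 beta plus TNF-alpha plus IFN-gamma mixture; protective hits raise ATP signal compared with cytokine alone wells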
[2] = target: T3, RNA-binding protein pos-1 (Caenorhabditis elegans, UniProt G5EF15); test: disruptors of C. elegans POS-1 RNA interaction – biochemical, fluorescence polarization, dose response (AID 1964);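 also: purified POS-1 fused to maltose binding protein made in E. coli; potency of compounds blocking POS-1 binding to fluorescent RNA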
T3 sequence (G5EF15 whole entry): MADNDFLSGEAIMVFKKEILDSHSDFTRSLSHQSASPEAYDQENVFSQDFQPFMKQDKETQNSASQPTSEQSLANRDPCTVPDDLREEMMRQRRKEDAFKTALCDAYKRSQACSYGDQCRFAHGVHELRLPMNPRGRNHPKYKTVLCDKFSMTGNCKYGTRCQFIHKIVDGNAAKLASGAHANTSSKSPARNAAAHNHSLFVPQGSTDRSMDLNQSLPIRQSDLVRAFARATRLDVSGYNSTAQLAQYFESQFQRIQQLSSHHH

[3] = target: T4, Zinc finger protein mex-5 (Caenorhabditis elegans, UniProt Q9XUB2); test: potency of MEX-5 RNA-binding blockers – biochemical, C. elegans, fluorescence polarization, dose response (AID 1960)
T4 sequence (Q9XUB2 whole entry): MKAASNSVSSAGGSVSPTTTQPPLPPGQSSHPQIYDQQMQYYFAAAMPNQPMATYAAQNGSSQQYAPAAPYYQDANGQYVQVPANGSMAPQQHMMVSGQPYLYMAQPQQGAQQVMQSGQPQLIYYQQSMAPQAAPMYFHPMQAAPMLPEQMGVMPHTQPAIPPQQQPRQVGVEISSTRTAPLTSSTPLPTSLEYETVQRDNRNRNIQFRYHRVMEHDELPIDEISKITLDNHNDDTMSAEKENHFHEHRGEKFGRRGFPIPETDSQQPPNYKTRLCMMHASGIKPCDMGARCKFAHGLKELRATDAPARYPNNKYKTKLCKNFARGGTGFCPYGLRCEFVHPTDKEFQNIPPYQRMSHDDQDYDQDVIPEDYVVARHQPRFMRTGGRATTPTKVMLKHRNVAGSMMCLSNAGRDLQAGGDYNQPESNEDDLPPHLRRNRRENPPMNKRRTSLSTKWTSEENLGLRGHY

[4] = fluconazole-exposed Candida albicans growth modulators – fluorescence, retest, confirmation (AID 2467); assay type: functional, cell-based
[5] = NIH-3T3 fibroblast cytotoxicity, dose response, cytotoxicity control, cell-based, fluorescence, Alamar Blue, secondary assay (AID 2327); assay type: functional;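 also: NIH-3T3 mouse fibroblasts cultured with fluconazole at 8 µg/mL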

Cytochrome P450 2D6, sequence (P10635 whole entry): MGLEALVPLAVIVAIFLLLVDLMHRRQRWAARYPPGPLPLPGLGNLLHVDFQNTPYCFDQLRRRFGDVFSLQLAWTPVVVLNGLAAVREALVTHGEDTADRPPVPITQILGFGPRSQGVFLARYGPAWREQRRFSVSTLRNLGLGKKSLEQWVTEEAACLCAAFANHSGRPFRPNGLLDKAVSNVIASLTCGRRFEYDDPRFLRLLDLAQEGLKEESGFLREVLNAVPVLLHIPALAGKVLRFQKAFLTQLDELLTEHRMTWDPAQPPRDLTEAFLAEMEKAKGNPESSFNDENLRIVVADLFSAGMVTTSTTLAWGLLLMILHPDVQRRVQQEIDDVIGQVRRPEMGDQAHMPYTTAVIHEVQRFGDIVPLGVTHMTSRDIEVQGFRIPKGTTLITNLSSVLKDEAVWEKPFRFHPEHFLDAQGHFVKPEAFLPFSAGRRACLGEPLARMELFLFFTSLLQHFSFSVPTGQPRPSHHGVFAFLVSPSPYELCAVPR
Cytochrome P450 3A4, sequence (P08684 whole entry): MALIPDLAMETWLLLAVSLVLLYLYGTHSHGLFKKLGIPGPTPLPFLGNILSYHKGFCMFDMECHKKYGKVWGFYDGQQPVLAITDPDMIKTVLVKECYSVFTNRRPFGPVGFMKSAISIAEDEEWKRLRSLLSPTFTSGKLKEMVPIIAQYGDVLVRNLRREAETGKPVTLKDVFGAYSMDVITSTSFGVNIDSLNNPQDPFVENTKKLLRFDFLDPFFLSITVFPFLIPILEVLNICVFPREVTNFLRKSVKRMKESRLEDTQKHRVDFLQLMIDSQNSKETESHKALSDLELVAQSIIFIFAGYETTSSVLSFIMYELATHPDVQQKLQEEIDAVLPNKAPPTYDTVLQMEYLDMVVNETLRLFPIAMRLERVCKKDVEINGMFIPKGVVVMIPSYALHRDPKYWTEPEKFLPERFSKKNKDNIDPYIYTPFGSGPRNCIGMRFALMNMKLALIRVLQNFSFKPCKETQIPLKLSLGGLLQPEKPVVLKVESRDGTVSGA

Compound: CN1CCN(c2nc(-c3ccccc3C(F)(F)F)nc3ccccc23)CC1
- AC50 (Cytochrome P450 2D6): 39.8 µM (inconclusive)
- AC50 (Cytochrome P450 3A4): 20 µM (inconclusive)

Compound: CCc1ccc(N(C(=O)c2ccoc2C)C(C(=O)NC2CCCC2)c2ccc(OC)cc2)cc1 (centres undefined)
- AC50 (Cytochrome P450 2D6): 15.8 µM (inconclusive)
- AC50 (Cytochrome P450 3A4): 1.26 µM (inconclusive)

Compound: Cc1noc(C)c1C(=O)OCC(=O)NC(c1ccccc1)c1ccccc1
- AC50 (Cytochrome P450 2D6): 3.16 µM (inconclusive)

Compound: CCn1c(SCC(=O)N2CCN(S(=O)(=O)c3ccccc3)CC2)nnc1-c1cccs1
- AC50 (Cytochrome P450 2D6): 17.8 µM (inconclusive)
- AC50 (Cytochrome P450 2C19): 22.4 µM (inconclusive)

Compound: O[C@@H](C1=C/C(=C\c2ccncc2)c2ccccc21)c1ccncc1
- AC50 (Cytochrome P450 2D6): 1.58 µM (inconclusive)

Compound: COc1ccc(N2C(=O)CC(N(CCc3ccccc3)C(=O)/C=C/C(=O)O)C2=O)cc1 (centres undefined)
- AC50 [1]: > 380 µM (inactive)
- EC50 (Protein RecA): > 380 µM (inactive)

Compound: Cc1cccc(N2CC(C(=O)OCC(=O)c3ccc(OC(=O)c4cccs4)cc3)CC2=O)c1C (centres undefined)
- AC50 [1]: 97.7 µM (active)
- EC50 (Protein RecA): 25 µM (active)

Compound: CCOC(=O)c1ccc(NC(=O)NCc2cccnc2)cc1
- AC50 (INS1): 2.09 µM (active)

Compound: O=C(c1ccco1)N1CCC[C@@]2(CCN(c3ccccc3)C2)C1
- AC50 (Cytochrome P450 2D6): 20 µM (inconclusive)

Compound: Cc1ccc(NC(=O)CSc2nnc(N)s2)cc1S(=O)(=O)N1CCOCC1
- EC50 [2]: > 300 µM (not active)
- EC50 [3]: > 300 µM (not active)

Compound: N=c1c(S(=O)(=O)c2ccc(Br)cc2)cc2c(=O)n3ccccc3nc2n1C1CCCCC1
- EC50 [2]: 9.42 µM (inconclusive)
- EC50 [3]: 8.8 µM (active)

Compound: CC1(C)CC(=O)C2=C(C1)OC(N)=C(C#N)C2c1cccc(OC(=O)c2ccco2)c1 (centres undefined)
- EC50 [2]: > 300 µM (not active)
- EC50 [3]: > 300 µM (not active)

Compound: O=C(NNc1ccc(Cl)cc1)C1CCC1
- EC50 [4]: > 38 µM (not active)
- EC50 [5]: 48.3 µM (active)

Compound: O=C(CN1C(=O)/C(=C/c2ccccc2)SC1=S)NNC(=O)c1ccccc1O
- EC50 [4]: > 38 µM (not active)
- EC50 [5]: > 160 µM (inconclusive)

— ChEMBL document CHEMBL1201862, “PubChem BioAssay data set” (2004)
